As usually defined, the IC50 is the concentration at which inhibition is half-maximal. Read a low IC50 as inhibition by little substance.

The record followed here is ChEMBL document CHEMBL1144210, “Synthesis of all-trans anandamide: a substrate for fatty acid amide hydrolase with dual effects on rabbit platelet activation” (Bioorg Med Chem, 2008).

The species entered for experiment [1] is Oryctolagus cuniculus. Briefly: Inhibition of FAAH in New Zealand white rabbit ear vein platelet assessed as [3H]anandamide hydrolysis at 7.5 uM.
Experiment [2] concerns Platelet. Briefly: Induction of platelet aggregation in New Zealand white rabbit ear vein plasma assessed as LDH activity at 0.36 mM. It is filed as functional, cell-based. Particulars: Oryctolagus cuniculus.
The test system of experiment [3] is Platelet. The experiment in a line: Induction of platelet aggregation in New Zealand white rabbit ear vein plasma in presence of PMSF. The class given is functional, Oryctolagus cuniculus.
Experiment [4] is filed under the species Oryctolagus cuniculus. Briefly: Inhibition of FAAH in New Zealand white rabbit ear vein platelets assessed as [3H]anandamide hydrolysis at 1.5 uM.
Experiment [5] relates to Platelet. Briefly: Induction of platelet aggregation in New Zealand white rabbit ear vein plasma at 18 uM to 70 uM. The class given is functional, cell-based. Particulars: Oryctolagus cuniculus.
In experiment [6] the test system is Platelet. The experiment in a line: Induction of platelet aggregation in New Zealand white rabbit ear vein plasma in presence of aspirin. It is filed as functional, cell-based. The conditions noted are these: Oryctolagus cuniculus.
Experiment [7] deals with Platelet. The experiment in a line: Induction of platelet aggregation in New Zealand white rabbit ear vein plasma in presence of indomethacin. The conditions noted are these: Oryctolagus cuniculus. The class given is functional, cell-based.
Experiment [8] has as its system Platelet. The experiment in a line: Induction of in New Zealand white rabbit ear vein plasma in presence of URB597. The class given is functional, cell-based. The conditions noted are these: Oryctolagus cuniculus.
For experiment [9], the system named is Platelet. Briefly: Inhibition of PAF-induced platelet aggregation in New Zealand white rabbit ear vein plasma. The class given is functional, cell-based. Particulars: Oryctolagus cuniculus.
Experiment [10] concerns Platelet. The experiment in a line: Induction of platelet aggregation in New Zealand white rabbit ear vein plasma at 100 uM to 1000 uM. It is filed as functional, cell-based. The conditions noted are these: Oryctolagus cuniculus.

Active and inactive are the calls of the source. No cut-off for these calls is given here.

As to `CCCCC/C=C/C/C=C/C/C=C/C/C=C/CCCC(=O)NCCO`, the result in the experiment listed under Oryctolagus cuniculus [1], with Platelet [2], in the experiment listed under Oryctolagus cuniculus [4], with Platelet [6] and in the experiment with Platelet [7] was Active. The “inhibition (INH)” value with Platelet [3] was 20%. The Activity entry in the experiment on Platelet [5] and in the experiment on Platelet [10] was “Dose-dependent effect” throughout. In the experiment on Platelet [8], the outcome was inactive. In the experiment with Platelet [9], the IC50 is 4.7 µM.
Regarding `CCCCC/C=C\C/C=C\C/C=C\C/C=C\CCCC(=O)NCCO`, the result in the experiment listed under Oryctolagus cuniculus [1] and in the experiment listed under Oryctolagus cuniculus [4] was Active. The Activity entry in the experiment on Platelet [2] is “Dose-dependent effect”.
